Consider 5 molecules from patent US5104895A, “Platinum(II) complexes, their preparation and use as anti-tumor agents” (Boehringer Mannheim Italia S.p.A., priority 1988, dated 1992).

For data set [1] the following is noted: cited from earlier work.
The subject of data set [2] is tumours in patients. The settings on record: human, in vivo; cited from earlier work.
Data set [3] has as its system M5076 ovarian carcinoma. Briefly: advanced M 5076 ovarian carcinoma in female mice. It is filed as in vivo. The source says:
(§1) "In vivo" experiments including: a murine leukaemia and murine L1210 leukaemia / cisplatin resistant (i.p. drug administration day 1 after i.p. injection of 10^6 tumour cells day 0); b) advanced M 5076 ovarian carcinoma in female mice (i.m. injection of 5.10^5 cell day 0, drug administration q7d×3) are based on classical models that allow a preliminary evaluation of efficacy and toxicity of the novel agent in comparison with a well-stated reference drug. The evaluated parameters are toxic death, median survival time (T/C %) and long term survivals (60 days).

For data set [4], the system named is L1210 resistant line. Briefly: in vivo murine L1210 leukaemia / cisplatin resistant.
Description: as §1

In data set [5] the test system is murine L1210 leukaemia. Briefly: in vivo murine L1210 leukaemia.
Description: as §1

Data set [6] deals with cervix epithelioma. Briefly: MTT assay, cervix epithelioid carcinoma. In kind it is cell-based, human. To be noted: in vitro. The source says: The "in vitro" testing procedure has been based on the "MTT assay on human tumor cell lines" (T. Mosmann, J Immunol. Meth., 65, 55, 1983). According to N.C.I screening program for new anticancer drugs, the evaluation of the anti-tumour activity has been performed against groups of cell lines each representing a major category of human malignancy. Human cell (for ex. cervix epithelioid carcinoma, melanoma, fibrosarcoma and vulvar leiomyosarcoma cultures have been adapted to grow in complete RPMI 1640 medium; the compounds were added to 24 hours cultures and incubated for 72 and 160 hours.

Setting [7] is: cisplatin at 7 and 10 mg/kg, i.p. day 1.

On to `N.N.O=C([O-])C1(C(=O)[O-])CCC1.[Pt+2]` [carboplatin], for which the “nephrotoxicity compared with cis-platin” value in data set [1] (human, in vivo) was “less nephrotoxic than cis-platin”. In addition, in data set [2], the “activity against lung tumors (non-small cell), osteogenic sarcoma, Hodgkins lymphoma, melanoma and mammary tumors” value is “a certain, even if limited, activity”.

Take `N.N.[Cl][Pt][Cl]` [cisplatin, cis-diammino-dichloro-platinum, reference compound]: the side-effects result in data set [1] (following cisplatin use) is “important gastrointestinal and renal side-effects, haematologic and neurologic complications (ototoxicity)”. Besides, the body weight change result in data set [3] (equieffective dose levels) was “marked body weight decrease”. Further, the “median survival time (T/C %)” value in data set [4] was determined as 115%. In addition, in data set [5] (setting [7]), the “long term survivals (60 days)” value was 1/10 and the “median survival time (T/C %)” value worked out at 162%. Further, in data set [2], the “activity against head and neck squamous cell carcinoma and further listed tumors” value is “a certain activity”; the “activity against lung tumors (non-small cell), osteogenic sarcoma, Hodgkins lymphoma, melanoma and mammary tumors” value is listed as “a certain, even if limited, activity”; the “antitumour activity in patients” value is “particularly effective in the treatment of genito-urinary tumours, of neck and head tumours”.

Regarding `NCCN.O=C([O-])C(CCOCCOCCO)C(=O)[O-].[Pt+2]` [reference compound, cis(1,2-diaminoethane)-(8-hydroxy 3,6-dioxaoctane-1-yl-malonate) platinum (II), reference compound], the toxicity result in data set [5] (at the higher dose level) is on record as “heavily toxic”.

Consider “(2R, 3R, 11R, 12R)-1,4-7,10,13,16-hexaoxacyclooctadecane-2,3,11,12-tetracarboxylate-bis- [compound B, (2R, 3R, 11R, 12R)-1,4-7,10,13,16-hexaoxacyclooctadecane-2,3,11,12-tetracarboxylate-bis-[cis(trans-d,l,-1,2)diamino-cyclohexane)-platinum(II)]]”, for which the “tumour growth inhibition potency” value in data set [3] (drug administration q7d×3) is on record as “comparable with that of cisplatin”. In data set [3] (mouse, in vivo), the body weight change result is reported as “normal body weight increase”. The “cross resistance with cisplatin” value in data set [4] was “Lack of cross resistance with cisplatin”. The “median survival time (T/C %)” value in data set [4] is recorded as “over 160%”; in data set [5] (20 mg/kg dose level, i.p. day 1), 170%; in data set [5] (120 mg/kg), 200%. For the same molecule, the “long term survivor values” in data set [5] (20 mg/kg dose level, 60 days) amounted to 2. In addition, the toxic deaths in data set [5] (120 mg/kg) was 2/10. Moreover, the long term survivors in data set [5] (120 mg/kg, 60 days) was 2/10. Besides, the DL100 result in data set [5] (i.p.) is “over 200 mg/kg”.

Regarding “cis[(1,1-diaminomethyl-cyclohexane)-3,3-(1,5,8,11,14,17-hexaoxacyclononadecane)cyclobutane]-1,1-dicarboxylate [compound D]”, the “antitumour activity compared with cisplatin” value in data set [6] was “more active than cisplatin of about a log. order”. Besides, in data set [4], the “cross resistance with cisplatin” value was “Lack of cross resistance with cisplatin” and the “median survival time (T/C %)” value was “over 160%”.
